Legend:
human mAChRM1 [1] = target: T1, human mAChRM1 (Homo sapiens, UniProt P11229); assay: mAChR M1 cell-based functional assay (calcium mobilization), agonist activity upon compound addition, Emax relative to acetylcholine maximum; settings: for EC50 / Agonist Activity Human M1 EC50: calcium mobilization upon compound addition; for Emax: relative to the maximum for acetylcholine
T1 construct: host or cells: CHO-K1
T1 sequence (P11229 1-460): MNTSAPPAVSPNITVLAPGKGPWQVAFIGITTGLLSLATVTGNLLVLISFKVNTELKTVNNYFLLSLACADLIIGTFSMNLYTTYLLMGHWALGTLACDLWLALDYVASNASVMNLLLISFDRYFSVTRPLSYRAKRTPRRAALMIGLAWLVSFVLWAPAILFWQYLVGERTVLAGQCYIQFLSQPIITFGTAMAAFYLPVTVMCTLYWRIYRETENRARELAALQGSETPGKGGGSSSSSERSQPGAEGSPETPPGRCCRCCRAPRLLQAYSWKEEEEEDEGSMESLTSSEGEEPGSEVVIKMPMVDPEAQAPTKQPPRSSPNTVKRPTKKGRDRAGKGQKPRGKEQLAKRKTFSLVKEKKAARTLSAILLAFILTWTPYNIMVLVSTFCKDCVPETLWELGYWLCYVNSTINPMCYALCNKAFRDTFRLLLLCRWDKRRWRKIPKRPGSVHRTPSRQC
How it was run: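 CHO-K1 cells stably expressing human M1 were loaded with Fluo-4 AM for 50 min at 37 °C. Compound was added 4 s into a 300 s FDSS read at 1 Hz, over 11-point 1:3 dilution curves. Agonism was taken as a concentration-dependent rise in calcium fluorescence ratio, with Emax expressed relative to the acetylcholine maximum from four-parameter logistic fits.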

human mAChRM1 [2] = target: T1, human mAChRM1; assay: mAChR M1 cell-based functional assay (calcium mobilization), positive allosteric modulator activity: increase in the EC20 acetylcholine response; settings: for Emax: PAM mode; for EC50: increase in the EC20 acetylcholine response, read-out: PAM Activity Human M1 EC50
How it was run: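 CHO-K1 cells stably expressing human M1, loaded with Fluo-4 AM; calcium flux recorded on FDSS at 1 Hz over 300 s following compound addition. PAM activity is the concentration-dependent increase of an EC20 acetylcholine response; EC50 and Emax from four-parameter logistic fits of 11-point, 1:3 concentration series.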

[2H]C1([2H])c2ncccc2C(=O)N1Cc1c(F)cc(-c2ccc(C(C)(C)O)c3nn(C)cc23)cc1F [Compound 142, 6-(2,6-Difluoro-4-(7-(2-hydroxypropan-2-yl)-2-methyl-2H-indazol-4-yl)benzyl)-6,7-dihydro-5H-pyrrolo[3,4-b]pyridin-5-one-7,7-d2]
EC50 (human mAChRM1 [1]): 4020 nM | Emax (human mAChRM1 [1]): 31% | Emax (human mAChRM1 [2]): 87% | EC50 (human mAChRM1 [2]): 119 nM

[2H]C1([2H])c2ncccc2C(=O)N1Cc1c(F)cc(-c2ccc(C(C)(C)O)c3nn(C([2H])([2H])[2H])cc23)cc1F [Compound 145, 6-(2,6-difluoro-4-(7-(2-hydroxypropan-2-yl)-2-(methyl-d3)-2H-indazol-4-yl)benzyl)-6,7-dihydro-5H-pyrrolo[3,4-b]pyridin-5-one-7,7-d2]
EC50 (human mAChRM1 [1]): 3780 nM | Emax (human mAChRM1 [1]): 12% | Emax (human mAChRM1 [2]): 62% | EC50 (human mAChRM1 [2]): 145 nM

[2H]C1([2H])c2ncccc2C(=O)N1Cc1cc(F)c(-c2ccc(C(C)(C)O)c3nn(C)cc23)cc1F [Compound 148, 6-(2,5-difluoro-4-(7-(2-hydroxypropan-2-yl)-2-methyl-2H-indazol-4-yl)benzyl)-6,7-dihydro-5H-pyrrolo[3,4-b]pyridin-5-one-7,7-d2]
EC50 (human mAChRM1 [1]): ≥ 10000 nM | Emax (human mAChRM1 [1]): 27% | Emax (human mAChRM1 [2]): 89% | EC50 (human mAChRM1 [2]): 206 nM

[2H]C1([2H])c2ncccc2C(=O)N1Cc1ccc(-c2ccc(C(C)(C)O)c3nn(C)cc23)c(F)c1F [Compound 149, 6-(2,3-Difluoro-4-(7-(2-hydroxypropan-2-yl)-2-methyl-2H-indazol-4-yl)benzyl)-6,7-dihydro-5H-pyrrolo[3,4-b]pyridin-5-one-7,7-d2]
Agonist Activity Human M1 EC50 (human mAChRM1 [1]): inactive | Emax (human mAChRM1 [2]): 88% | EC50 (human mAChRM1 [2]): 623 nM

[2H]C1([2H])c2ncccc2C(=O)N1Cc1c(Cl)cc(-c2ccc(C(C)(C)O)c3nn(C)cc23)cc1C1CC1 [Compound 150, 6-(2-chloro-6-cyclopropyl-4-(7-(2-hydroxypropan-2-yl)-2-methyl-2H-indazol-4-yl)benzyl)-6,7-dihydro-5H-pyrrolo[3,4-b]pyridin-5-one-7,7-d2]
EC50 (human mAChRM1 [1]): 6720 nM | Emax (human mAChRM1 [1]): 23% | Emax (human mAChRM1 [2]): 79% | EC50 (human mAChRM1 [2]): 364 nM

[2H]C1([2H])c2ncccc2C(=O)N1Cc1c(F)cc(-c2ccc(C(C)(C)O)c3nn(C)cc23)cc1N1CCC1 [Compound 151, 6-(2-(azetidin-1-yl)-6-fluoro-4-(7-(2-hydroxypropan-2-yl)-2-methyl-2H-indazol-4-yl)benzyl)-6,7-dihydro-5H-pyrrolo[3,4-b]pyridin-5-one-7,7-d2]
Agonist Activity Human M1 EC50 (human mAChRM1 [1]): inactive | Emax (human mAChRM1 [2]): 85% | EC50 (human mAChRM1 [2]): 1270 nM

[2H]C1([2H])c2ncccc2C(=O)N1Cc1c(F)cc(-c2ccc(C(C)(C)O)c3nn(C)cc23)cc1C1CCCC1 [Compound 152, 6-(2-cyclopentyl-6-fluoro-4-(7-(2-hydroxypropan-2-yl)-2-methyl-2H-indazol-4-yl)benzyl)-6,7-dihydro-5H-pyrrolo[3,4-b]pyridin-5-one-7,7-d2]
Agonist Activity Human M1 EC50 (human mAChRM1 [1]): inactive | Emax (human mAChRM1 [2]): 74% | EC50 (human mAChRM1 [2]): 3360 nM

[2H]C1([2H])c2ncccc2C(=O)N1Cc1ccc(-c2ccc(C(C)(C)O)c3nn(C)cc23)cc1C(C)C [Compound 153, 6-(4-(7-(2-hydroxypropan-2-yl)-2-methyl-2H-indazol-4-yl)-2-isopropylbenzyl)-6,7-dihydro-5H-pyrrolo[3,4-b]pyridin-5-one-7,7-d2]
Agonist Activity Human M1 EC50 (human mAChRM1 [1]): inactive | Emax (human mAChRM1 [2]): 35% | EC50 (human mAChRM1 [2]): ≥ 10000 nM

Cn1cc2c(-c3cc(F)c(CN4Cc5cccc(F)c5C4=O)c(F)c3)ccc(C(C)(C)O)c2n1 [Compound 154, 2-(2,6-difluoro-4-(7-(2-hydroxypropan-2-yl)-2-methyl-2H-indazol-4-yl)benzyl)-7-fluoroisoindolin-1-one]
Agonist Activity Human M1 EC50 (human mAChRM1 [1]): inactive | Emax (human mAChRM1 [2]): 87% | EC50 (human mAChRM1 [2]): 64 nM

Cn1cc2cc(-c3cc(F)c(CN4Cc5cccc(F)c5C4=O)c(F)c3)cc(C(C)(C)O)c2n1 [Compound 155, 2-(2,6-difluoro-4-(7-(2-hydroxypropan-2-yl)-2-methyl-2H-indazol-5-yl)benzyl)-7-fluoroisoindolin-1-one]
Agonist Activity Human M1 EC50 (human mAChRM1 [1]): inactive | Emax (human mAChRM1 [2]): 75% | EC50 (human mAChRM1 [2]): 358 nM

[2H]C([2H])([2H])C(O)(c1ccc(-c2cc(F)c(CN3Cc4cccc(F)c4C3=O)c(F)c2)c2cn(C)nc12)C([2H])([2H])[2H] [Compound 156, 2-(2,6-difluoro-4-(7-(2-hydroxypropan-2-yl-1,1,1,3,3,3-d)-2-methyl-2H-indazol-4-yl)benzyl)-7-fluoroisoindolin-1-one]
Agonist Activity Human M1 EC50 (human mAChRM1 [1]): inactive | Emax (human mAChRM1 [2]): 83% | EC50 (human mAChRM1 [2]): 136 nM

Cn1ncc2c(-c3cc(F)c(CN4Cc5cccc(F)c5C4=O)c(F)c3)ccc(C(C)(C)O)c21 [Compound 157, 2-(2,6-difluoro-4-(7-(2-hydroxypropan-2-yl)-1-methyl-1H-indazol-4-yl)benzyl)-7-fluoroisoindolin-1-one]
Agonist Activity Human M1 EC50 (human mAChRM1 [1]): inactive | Emax (human mAChRM1 [2]): 61% | EC50 (human mAChRM1 [2]): ≥ 10000 nM

Cn1cc2c(-c3cc(F)c(CN4Cc5cccc(F)c5C4=O)c(F)c3)ccc(C(C)(O)C(F)F)c2n1 (stereo not drawn) [Compound 158, 2-(4-(7-(1,1-difluoro-2-hydroxypropan-2-yl)-2-methyl-2H-indazol-4-yl)-2,6-difluorobenzyl)-7-fluoroisoindolin-1-one]
Agonist Activity Human M1 EC50 (human mAChRM1 [1]): inactive | Emax (human mAChRM1 [2]): 77% | EC50 (human mAChRM1 [2]): 450 nM

Cn1cc2c(-c3cc(F)c(CN4Cc5cccc(F)c5C4=O)c(F)c3)ccc(C3(O)COC3)c2n1 [Compound 159, 2-(2,6-difluoro-4-(7-(3-hydroxyoxetan-3-yl)-2-methyl-2H-indazol-4-yl)benzyl)-7-fluoroisoindolin-1-one]
Agonist Activity Human M1 EC50 (human mAChRM1 [1]): inactive | Emax (human mAChRM1 [2]): 81% | EC50 (human mAChRM1 [2]): 118 nM

Cn1cc2c(-c3ccc(CN4Cc5cccc(F)c5C4=O)c(F)c3)ccc(C(C)(C)O)c2n1 [Compound 160, 7-fluoro-2-(2-fluoro-4-(7-(2-hydroxypropan-2-yl)-2-methyl-2H-indazol-4-yl)benzyl)isoindolin-1-one]
Agonist Activity Human M1 EC50 (human mAChRM1 [1]): inactive | Emax (human mAChRM1 [2]): 80% | EC50 (human mAChRM1 [2]): 296 nM

Cc1cc(-c2ccc(C(C)(C)O)c3nn(C)cc23)ccc1CN1Cc2cccc(F)c2C1=O [Compound 161, 7-fluoro-2-(4-(7-(2-hydroxypropan-2-yl)-2-methyl-2H-indazol-4-yl)-2-methylbenzyl)isoindolin-1-one]
Agonist Activity Human M1 EC50 (human mAChRM1 [1]): inactive | Emax (human mAChRM1 [2]): 80% | EC50 (human mAChRM1 [2]): 521 nM

Cc1cc(-c2ccc(C(C)(C)O)c3nn(C)cc23)cc(F)c1CN1Cc2cccc(F)c2C1=O [Compound 162, 7-fluoro-2-(2-fluoro-4-(7-(2-hydroxypropan-2-yl)-2-methyl-2H-indazol-4-yl)-6-methylbenzyl)isoindolin-1-one]
EC50 (human mAChRM1 [1]): ≥ 10000 nM | Emax (human mAChRM1 [1]): 19% | Emax (human mAChRM1 [2]): 75% | EC50 (human mAChRM1 [2]): 202 nM

Cn1cc2c(-c3cc(F)c(CN4Cc5cccc(F)c5C4=O)cc3F)ccc(C(C)(C)O)c2n1 [Compound 163, 2-(2,5-difluoro-4-(7-(2-hydroxypropan-2-yl)-2-methyl-2H-indazol-4-yl)benzyl)-7-fluoroisoindolin-1-one]
EC50 (human mAChRM1 [1]): ≥ 10000 nM | Emax (human mAChRM1 [1]): 11% | Emax (human mAChRM1 [2]): 78% | EC50 (human mAChRM1 [2]): 124 nM

Cn1cc2c(-c3ccc(CN4Cc5cccc(F)c5C4=O)c(F)c3F)ccc(C(C)(C)O)c2n1 [Compound 164, 2-(2,3-difluoro-4-(7-(2-hydroxypropan-2-yl)-2-methyl-2H-indazol-4-yl)benzyl)-7-fluoroisoindolin-1-one]
Agonist Activity Human M1 EC50 (human mAChRM1 [1]): inactive | Emax (human mAChRM1 [2]): 71% | EC50 (human mAChRM1 [2]): 1210 nM

Cn1cc2c(-c3cc(F)c(CN4Cc5cccc(F)c5C4=O)c(Cl)c3)ccc(C(C)(C)O)c2n1 [Compound 165, 2-(2-chloro-6-fluoro-4-(7-(2-hydroxypropan-2-yl)-2-methyl-2H-indazol-4-yl)benzyl)-7-fluoroisoindolin-1-one]
Agonist Activity Human M1 EC50 (human mAChRM1 [1]): inactive | Emax (human mAChRM1 [2]): 80% | EC50 (human mAChRM1 [2]): 361 nM

Cn1cc2cc(-c3ccc(CN4Cc5cccc(F)c5C4=O)c(F)c3)cc(C(C)(C)O)c2n1 [Compound 166, 7-fluoro-2-(2-fluoro-4-(7-(2-hydroxypropan-2-yl)-2-methyl-2H-indazol-5-yl)benzyl)isoindolin-1-one]
Agonist Activity Human M1 EC50 (human mAChRM1 [1]): inactive | Emax (human mAChRM1 [2]): 76% | EC50 (human mAChRM1 [2]): 744 nM

Cc1cc(-c2cc(C(C)(C)O)c3nn(C)cc3c2)ccc1CN1Cc2cccc(F)c2C1=O [Compound 167, 7-fluoro-2-(4-(7-(2-hydroxypropan-2-yl)-2-methyl-2H-indazol-5-yl)-2-methylbenzyl)isoindolin-1-one]
Agonist Activity Human M1 EC50 (human mAChRM1 [1]): inactive | Emax (human mAChRM1 [2]): 74% | EC50 (human mAChRM1 [2]): 3120 nM

Cc1cc(-c2cc(C(C)(C)O)c3nn(C)cc3c2)cc(F)c1CN1Cc2cccc(F)c2C1=O [Compound 168, 7-fluoro-2-(2-fluoro-4-(7-(2-hydroxypropan-2-yl)-2-methyl-2H-indazol-5-yl)-6-methylbenzyl)isoindolin-1-one]
Agonist Activity Human M1 EC50 (human mAChRM1 [1]): inactive | Emax (human mAChRM1 [2]): 79% | EC50 (human mAChRM1 [2]): 998 nM
